Test results from ChEMBL document CHEMBL6120979, “Cell penetrable peptide nucleic acids targeting PDZK1IP1 with anti-inflammatory potential in human keratinocytes” (Bioorg Med Chem Lett, 2025).
Active and inactive are the calls of the source. The rule behind the calls is not given here.

What was measured:
Keratinocyte [1] = test: Inhibition of PDZK1IP1 mRNA expression in human keratinocytes at 1 uM incubated for 24 hrs by RT-qPCR analysis; format: functional, cell-based
Keratinocyte [2] = test: Antiinflammatory activity in human keratinocytes assessed as downregulation of PDZK1IP1 gene expression at 1 uM preincubated with compound for 24 hrs followed by IFN-gamma addition and measured after 24 hrs by RT-qPCR analysis; format: functional, cell-based; settings: time 48.0 hrs
Keratinocyte [3] = test: Antiinflammatory activity in human keratinocytes assessed as downregulation of IL6 gene expression at 1 uM preincubated with compound for 24 hrs followed by IFN-gamma addition and measured after 24 hrs by RT-qPCR analysis; format: functional, cell-based; settings: time 48.0 hrs
Keratinocyte [4] = test: Antiinflammatory activity in human keratinocytes assessed as downregulation of PTGS2 gene expression at 1 uM preincubated with compound for 24 hrs followed by IFN-gamma addition and measured after 24 hrs by RT-qPCR analysis; format: functional, cell-based; settings: time 48.0 hrs
Keratinocyte [5] = test: Antiinflammatory activity in human keratinocytes assessed as downregulation of PTGS2 gene expression preincubated with compound for 24 hrs followed by IFN-gamma addition and measured after 24 hrs by RT-qPCR analysis; format: functional, cell-based; settings: dose 0.01-1 µM, time 48.0 hrs
Keratinocyte [6] = test: Antiinflammatory activity in human keratinocytes assessed as downregulation of IL6 gene expression preincubated with compound for 24 hrs followed by IFN-gamma addition and measured after 24 hrs by RT-qPCR analysis; format: functional, cell-based; settings: dose 0.01-1 µM, time 48.0 hrs
RNA [7] = test: Binding affinity to complementary RNA (unknown origin) in sodium phosphate buffer assessed as melting temperature of PNA-RNA duplex; format: nucleic-acid assay
Keratinocyte [8] = test: Inhibition of PDZK1IP1 mRNA expression in human keratinocytes incubated for 24 hrs by RT-qPCR analysis; format: functional, cell-based
RNA [9] = test: Binding affinity to complementary RNA (unknown origin) with mismatch bases in sodium phosphate buffer; format: nucleic-acid assay
Keratinocyte [10] = test: Antiinflammatory activity in human keratinocytes assessed as downregulation of PDZK1IP1 gene expression preincubated with compound for 24 hrs followed by IFN-gamma addition and measured after 24 hrs by RT-qPCR analysis; format: functional, cell-based; settings: dose 0.01-1 µM, time 48.0 hrs
Keratinocyte [11] = test: Inhibition of PDZK1IP1 mRNA expression in human keratinocytes at 0.01 to 1 uM incubated for 24 hrs by RT-qPCR analysis; format: functional, cell-based; settings: dose 0.01-1 µM

## Cc1cn(CC(=O)N(CCN)CC(=O)NCCN(CC(=O)NCCN(CC(=O)NCCN(CC(=O)NCCN(CC(=O)NCCN(CC(=O)NCCN(CC(=O)NCCN(CC(=O)NCCN(CC(=O)NCCN(CC(=O)NCCN(CC(=O)NCCN(CC(=O)NCCN(CC(=O)NCCN(CC(=O)NCCN(CC(=O)NCCN(CC(=O)NCCN(CC(=O)NCCN(CC(=O)NCCN(CC(=O)NCCN(CC(N)=O)C(=O)Cn2cnc3c(=O)[nH]c(N)nc32)C(=O)Cn2ccc(N)nc2=O)C(=O)Cn2cnc3c(N)nc(NCCCCCN)nc32)C(=O)Cn2cc(C)c(=O)[nH]c2=O)C(=O)Cn2ccc(N)nc2=O)C(=O)Cn2cnc3c(N)ncnc32)C(=O)Cn2cnc3c(=O)[nH]c(N)nc32)C(=O)Cn2cnc3c(N)ncnc32)C(=O)Cn2ccc(N)nc2=O)C(=O)Cn2cnc3c(N)nc(N)nc32)C(=O)Cn2cnc3c(N)nc(NCCCCCN)nc32)C(=O)Cn2ccc(N)nc2=O)C(=O)Cn2cc(C)c(=O)[nH]c2=O)C(=O)Cn2cc(C)c(=O)[nH]c2=O)C(=O)Cn2ccc(N)nc2=O)C(=O)Cn2cnc3c(N)nc(NCCCCCN)nc32)C(=O)Cn2ccc(N)nc2=O)C(=O)Cn2cc(C)c(=O)[nH]c2=O)C(=O)Cn2cc3cc(COCCN)[nH]c3nc2=O)c(=O)[nH]c1=O
Keratinocyte [1]
  inhibition: inactive
Keratinocyte [2]
  Activity: inactive
Keratinocyte [3]
  Activity: inactive
Keratinocyte [4]
  Activity: inactive

## Cc1cn(CC(=O)N(CCN)CC(=O)NCCN(CC(=O)NCCN(CC(=O)NCCN(CC(=O)NCCN(CC(=O)NCCN(CC(=O)NCCN(CC(=O)NCCN(CC(=O)NCCN(CC(=O)NCCN(CC(=O)NCCN(CC(=O)NCCN(CC(=O)NCCN(CC(=O)NCCN(CC(=O)O)C(=O)Cn2cnc3c(=O)[nH]c(N)nc32)C(=O)Cn2cnc3c(=O)[nH]c(NCCCCCCN)nc32)C(=O)Cn2cc(C)c(=O)[nH]c2=O)C(=O)Cn2ccc(N)nc2=O)C(=O)Cn2ccc(N)nc2=O)C(=O)Cn2cc3cc(COCCN)[nH]c3nc2=O)C(=O)Cn2cc(C)c(=O)[nH]c2=O)C(=O)Cn2ccc(N)nc2=O)C(=O)Cn2cnc3c(=O)[nH]c(NCCCCCCN)nc32)C(=O)Cn2cnc3c(=O)[nH]c(N)nc32)C(=O)Cn2cnc3c(N)nc(NCCCCCN)nc32)C(=O)Cn2ccc(N)nc2=O)C(=O)Cn2cnc3c(=O)[nH]c(NCCCCCCN)nc32)c(=O)[nH]c1=O
Keratinocyte [5]
  Activity: Dose-dependent-effect
Keratinocyte [6]
  Activity: Dose-dependent-effect
RNA [7]
  Tm: 80 °C
Keratinocyte [8]
  inhibition: Dose-dependent-effect
RNA [9]
  Activity: inactive
Keratinocyte [1]
  inhibition: Active
Keratinocyte [10]
  Activity: Dose-dependent-effect

## Cc1cn(CC(=O)N(CCNC(=O)CN(CCNC(=O)CN(CCNC(=O)CN(CCNC(=O)CN(CCNC(=O)CN(CCNC(=O)CN(CCN)C(=O)Cn2cnc3c(=O)[nH]c(N)nc32)C(=O)Cn2cnc3c(=O)[nH]c(NCCCCCCN)nc32)C(=O)Cn2ccc(N)nc2=O)C(=O)Cn2cc(C)c(=O)[nH]c2=O)C(=O)Cn2cc3cc(COCCN)[nH]c3nc2=O)C(=O)Cn2ccc(N)nc2=O)CC(=O)NCCN(CC(=O)NCCN(CC(=O)NCCN(CC(=O)NCCN(CC(=O)NCCN(CC(=O)NCCN(CC(=O)NCCN(CC(=O)O)C(=O)Cn2cnc3c(N)nc(NCCCCCN)nc32)C(=O)Cn2ccc(N)nc2=O)C(=O)Cn2cnc3c(=O)[nH]c(N)nc32)C(=O)Cn2cnc3c(=O)[nH]c(NCCCCCCN)nc32)C(=O)Cn2cc(C)c(=O)[nH]c2=O)C(=O)Cn2cc3cc(COCCN)[nH]c3nc2=O)C(=O)Cn2ccc(N)nc2=O)c(=O)[nH]c1=O
RNA [7]
  Tm: 84 °C
RNA [9]
  Activity: inactive
Keratinocyte [1]
  inhibition: Active
Keratinocyte [11]
  inhibition: Mild_effect; Mild Dose Dependent Effect Observed
